In test [1] the target is T1, FSH receptor (Homo sapiens, UniProt P23945).
T1 sequence (P23945 18-695): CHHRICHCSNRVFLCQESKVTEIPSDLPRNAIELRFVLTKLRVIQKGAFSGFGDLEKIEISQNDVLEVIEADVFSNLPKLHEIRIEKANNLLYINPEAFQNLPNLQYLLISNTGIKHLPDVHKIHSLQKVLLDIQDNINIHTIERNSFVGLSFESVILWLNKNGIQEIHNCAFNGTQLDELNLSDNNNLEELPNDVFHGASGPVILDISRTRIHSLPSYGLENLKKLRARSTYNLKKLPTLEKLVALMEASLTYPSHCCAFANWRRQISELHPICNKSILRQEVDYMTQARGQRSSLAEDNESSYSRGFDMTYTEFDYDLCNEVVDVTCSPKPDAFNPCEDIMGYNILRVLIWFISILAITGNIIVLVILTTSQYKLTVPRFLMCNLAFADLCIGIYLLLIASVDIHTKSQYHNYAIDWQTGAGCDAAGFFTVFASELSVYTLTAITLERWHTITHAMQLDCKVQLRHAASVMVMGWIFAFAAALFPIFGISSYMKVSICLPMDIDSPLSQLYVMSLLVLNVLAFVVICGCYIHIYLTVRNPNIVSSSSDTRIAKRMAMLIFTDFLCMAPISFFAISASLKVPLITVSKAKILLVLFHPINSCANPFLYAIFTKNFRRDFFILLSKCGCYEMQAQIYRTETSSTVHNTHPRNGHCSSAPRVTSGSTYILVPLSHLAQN
The experiment in a line: FSH Receptor Radioligand Membrane Binding Assay ([125I]hFSH, CHO cell membranes). The arrangement: expressed in transfected cells; membrane homogenate. The conditions noted are these: for inhibition at 10 µM: read-out: % Inhibition at 10 μM conc.; for inhibition at 100 µM: read-out: % Inhibition at 100 μM conc. On the procedure:
FSH Receptor Radioligand Membrane Binding Assay
Membrane Source: Chinese hamster ovarian cells stably transfected with the human FSH receptor were cultured (Ultra CHO medium containing 1% fetal bovine serum and 200 μg/mL G418) in and harvested. Cells were collected by centrifugation and resulting cell pellets were frozen and stored at -70° C.
Membrane Receptor Preparation: Frozen cell pellets were weighed and resuspended in binding buffer to a final concentration of 30 mg wet weight/mL. Cell suspension for each pellet was homogenized using a Tempest homogenizer (setting=1; 5 strokes; VirTis, Gardiner, N.Y.). Cell homogenates were pooled and 35 mL aliquots were transferred to 50-mL polypropylene copolymer centrifuge tubes (Nalgene cat. #3110-0500). Tubes were spun at 12,000 rpm (SS34 rotor) for 12 min at 4° C. Resulting supernatant fractions were discarded and pellets were stored at -70° C. until use. On the day of the assay, 35 mL binding buffer was added to each tube (35 mL membrane suspension was sufficient for three 96-well plates). The membrane pellet was dispersed by trituration using a pipet. The resulting suspension was homogenized using a Tempest homogenizer (3 strokes at setting=1).
Receptor Binding Assay: Membrane homogenate (100 μl) was added to each well of a 96-well microtiter plate (Falcon # 3077). All reactions were tested in triplicate. Test compound solutions (50 μl) were added to the designated wells. Total bound counts were determined by adding 50 μl binding buffer containing 4% DMSO to the designated wells. […] Plates were pre-incubated for 15 min at room temperature on shaking platform (setting=3). After preincubation [^125 I]FSH (50 μl) was added to each well and plates were incubated for 2 h at room temperature on shaking platform (setting=3). The reaction was terminated by transfer of the membrane preparation to glass fiber filters (Blue Mat #11740; 102×256 mm; Skatron Instruments, Sterling, Va.) that had been pretreated with 1% BSA in wash buffer for at least 30 min, but not longer than 1 h using a 96-well microtiter vacuum harvester (Skatron Instruments). The membrane preparation was washed with 5 cycles of ice-cold wash buffer (200 μl/well/cycle) followed by a pulse wash of 3 cycles (100 μl/well/cycle). The total wash volume per well was 1.3 mL. The filters were dried by a 10 sec aspiration. Disks corresponding to each well of the microtiter plate were punched out of the filter mat into 12×75 mm polypropylene tubes. The radioactivity present on each of the disks was measured using a gamma counter.
An FSH dose response curve (0.001, 0.01, 0.1, 1, 10, and 100 nM) was generated for each binding assay to monitor assay to assay variability.
FSH Receptor Radioligand Membrane Binding Assay Buffers and Reagents
Binding Buffer (pH 7.2): 10 mM Trizma®-HCl (Sigma)
Binding buffer was prepared in 1 l volumes containing Trizma-HCl, MgCl2, CaCl2 and sodium azide, the pH was adjusted to 7.2 with NaOH, and stored at 4° C. until use. BSA was weighed out on the day of the assay and added to the amount of buffer required for the assay (usually 150 mL). The protease inhibitors were prepared as 1 mg/mL stocks (aprotinin, leupeptin, and phosphoramidon were prepared in binding buffer without BSA and protease inhibitors; pepstatin and PMSF were prepared in methanol), stored in 1 mL aliquots at -70° C., and added to the binding buffer on the day of the assay.
Wash Buffer (pH 7.2): 50 mM Trizma®-HCl (Sigma)
Wash buffer was prepared containing Trizma-HCl, MgCl2 and EDTA, the pH was adjusted to 7.2 with NaOH, and stored at 4° C.
Filter Soak Buffer (pH 7.2): Wash Buffer
BSA was weighed out on the day of the assay and added to 300 mL of wash buffer. The filter soak buffer was used for two assays before being discarded.
A portion of the stock solution was diluted in binding buffer to a concentration of 200 pM. […]

For test [2], the target named is T2, FSH receptor (Rattus norvegicus, UniProt P20395).
T2 sequence (P20395 18-692): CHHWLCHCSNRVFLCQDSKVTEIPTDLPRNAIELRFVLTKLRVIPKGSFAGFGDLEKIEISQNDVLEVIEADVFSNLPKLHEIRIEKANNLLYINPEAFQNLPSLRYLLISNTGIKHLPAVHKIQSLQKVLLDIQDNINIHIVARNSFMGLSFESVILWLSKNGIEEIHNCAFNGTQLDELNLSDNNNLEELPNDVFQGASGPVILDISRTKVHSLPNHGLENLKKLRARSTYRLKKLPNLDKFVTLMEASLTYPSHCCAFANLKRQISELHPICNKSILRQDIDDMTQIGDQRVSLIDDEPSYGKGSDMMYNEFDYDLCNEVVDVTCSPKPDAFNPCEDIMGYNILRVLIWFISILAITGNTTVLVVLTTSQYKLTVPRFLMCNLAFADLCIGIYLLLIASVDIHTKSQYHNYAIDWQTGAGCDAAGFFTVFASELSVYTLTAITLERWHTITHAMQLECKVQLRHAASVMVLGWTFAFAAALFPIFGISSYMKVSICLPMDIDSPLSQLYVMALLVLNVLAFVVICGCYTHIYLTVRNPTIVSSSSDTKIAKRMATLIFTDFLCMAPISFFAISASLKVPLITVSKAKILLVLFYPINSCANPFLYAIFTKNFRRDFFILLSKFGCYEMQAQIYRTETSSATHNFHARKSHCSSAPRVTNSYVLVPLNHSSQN
Nature of the test: In Vitro Bioassay of Agonists and Antagonists to the FSH Receptor using Primary Cultures of Rat Granulosa (estradiol secretion). The format is cell-based. The conditions noted are these: antagonist mode; ED50 of FSH (0.5 ng/mL), rat granulosa cells, 72 h; read-out: IC50 (half-maximal inhibition of FSH-induced estradiol secretion). Further details: immature female Sprague-Dawley rats (Charles River Laboratories, Wilmington, Mass.) were used as donors for ovarian granulosa cells; endogenous in cells; host or cells: primary ovarian granulosa cells of immature female Sprague-Dawley rats.
Procedure: The concentration of vehicle was maintained constant throughout all dilutions.
Preparation of Granulosa Cells: Twenty-four day-old immature female Sprague-Dawley rats (Charles River Laboratories, Wilmington, Mass.) were used as donors for ovarian granulosa cells. The animals were treated by single daily injections of 100 mg/kg diethylstilbestrol (DES) in oil over three days. On the fourth day, animals were sacrificed by CO2 asphyxiation and the ovaries were removed. Ovaries were washed three times in 50 mL of sterile HEPES-buffered saline (HBS, pH 7.4). […] After the final spin, the cells were resuspended by gentle trituration in 25 mL serum-free medium, an aliquot counted in a hemocytometer and viability estimated by trypan blue exclusion. […]
Analysis of Results: Estradiol was expressed as pg/mL. […] Data were analyzed statistically by analysis of variance with Huber weighting of log transformed data. […]

For test [3], the target named is T1, FSH receptor. The experiment in a line: In Vitro Bio-assay of Agonists and Antagonists to the FSH Receptor (cAMP accumulation in CHO-3D2 cells). The class given is cell-based. Further details: expressed in transfected cells; host or cells: CHO-3D2 cells. On the procedure:
Preparation of CHO-3D2 Cells; CHO-3D2 cells were plated into 96-well Nunc tissue culture plates at a density of 30,000 cells/well in DMEM/F12 medium (Gibco/BRL, Grand Island, N.Y.) supplemented with 5% Fetal Bovine Serum (Hyclone, Fetal Clone II), 2 mM L-glutamine and penicillin/streptomycin (100 U/mL).
The plate was split in half to test a single compound in both agonist and antagonist mode on the same plate.
For agonist mode, compounds were tested using 5 different concentrations in a dose-response paradigm using one column as a control (challenge medium alone) in agonist mode.
The 96-well format allowed for the capability to test 4 columns of compound, using one of the remaining columns for negative control (challenge medium alone) and the other remaining column for ampositive control (ED20 of FSH alone).
The doses chosen to test each compound were extrapolated from the initial screening process (receptor binding data).
Data were analyzed statistically by analysis of variance and significant differences between treatments and control determined by Dunnett's test. In antagonist mode, a Duncan's test was used.
Reference Compounds: Test compounds were compared to the effect of purified or recombinant human FSH.
A general note: Cyclic AMP is a second messenger, typically raised through Gs and lowered through Gi signalling.

Test [4] relates to testosterone production. To be noted: humans administered suramin; in words; cited from earlier work.
Test [5] deals with T2, FSH receptor. The conditions noted are these: literature, in words; cited from earlier work.
Test [6] relates to testosterone production. The conditions noted are these: rats administered suramin; in words; cited from earlier work.
[7] abbreviates: 10 μM, [125I]hFSH binding, CHO membranes with human FSH receptor.
The mark [8] stands for this setting: 100 μM, [125I]hFSH binding, CHO membranes with human FSH receptor.
[9] abbreviates: antagonist mode, hFSH-induced cAMP accumulation (ED20 of FSH, […]), CHO-3D2 cells, 30 min.

These results are taken from patent US6200963A, “Aryl sulfonic acids as FSH antagonists” (American Home Products Corporation, priority 2000, dated 2001).

Where a name gives a salt, the structure may show the parent alone. Read-outs that look alike come from different tables or passages of the source.

For orientation: % Inhibition means the percentage by which the read-out fell short of the control. In general, inhibition refers to the share of the control response that was lost under treatment. In general, IC50 refers to the concentration that gives 50% inhibition. As to `COc1ccc(N=Nc2c(S(=O)(=O)O)cc3cc(Nc4nc(Cl)nc(N(CCC(N)=O)CCC(N)=O)n4)ccc3c2O)cc1` [Example 9, 7-{4-[Bis-(2-carbamoyl-ethyl)-amino]-6-chloro-[1,3,5]-triazin-2-ylamino)-4-hydroxy-3-(4-methoxy-phenylazo)-napthalene-2-sulfonic Acid, Sodium Salt], the “% Inhibition at 10 μM conc.” value in test [1] (10 μM, [125I]hFSH binding, CHO membranes with human FSH receptor, Sodium Salt) is reported as 66%. Further, in test [1] (setting [7]), the inhibition at 10 µM worked out at 74%. Also, the “% Inhibition at 100 μM conc.” value in test [1] (100 μM, [125I]hFSH binding, CHO membranes with human FSH receptor, Sodium Salt) came to 98%. The inhibition at 100 µM in test [1] (setting [8]) was 94%. Moreover, the concentration for half-maximal inhibition (IC50) stood at 5 µM in test [1] ([125I]hFSH binding, CHO membranes with human FSH receptor, Sodium Salt); 6 µM in test [1] ([125I]hFSH binding, CHO membranes with human FSH receptor, listed as 3, Sodium Salt); 1.9 µM in test [2]; 1.4 µM in test [3] (setting [9]).
For `COc1ccc(N=Nc2c(S(=O)(=O)O)cc3cc(Nc4nc(Cl)nc(N(CCO)CCO)n4)ccc3c2O)cc1` [Example 11, 7-{4-[Bis-(2-hydroxy-ethyl)-amino]-6-chloro-[1,3,5]-triazin-2-ylamino)-4-hydroxy-3-(4-methoxy-phenylazo)-napthalene-2-sulfonic Acid, Sodium Salt], the inhibition at 10 µM in test [1] (setting [7]) stood at 29%. Further, the inhibition at 100 µM in test [1] (setting [8]) was determined as 71%. The half-inhibitory concentration (IC50) in test [1] ([125I]hFSH binding, CHO membranes with human FSH receptor) is 8.6 µM; in test [3] (setting [9]) it was 10 µM.
The compound `COc1ccc(N=Nc2c(S(=O)(=O)O)cc3cc(NC(=O)c4ccc(N(C)C)cc4)ccc3c2O)cc1` [Example 12, 7-(4-Dimethylamino-benzoylamino)-4-hydroxy-3-(4-methoxy-phenylazo)-napthalene-2-sulfonic Acid, Sodium Salt] came in with an IC50 in test [1] of 101 µM.
Regarding `COc1ccc(N=Nc2c(S(=O)(=O)O)cc3cc(NC(=O)c4cc(OC)cc(OC)c4)ccc3c2O)cc1` [Example 14, 7-(3,5-Dimethoxy-benzoylamino)-4-hydroxy-3-(4-methoxy-phenylazo)-napthalene-2-sulfonic Acid], the half-maximal inhibitory concentration (IC50) in test [1] turned out to be 81 µM. Further, in test [1] (setting [7]), the inhibition at 10 µM is 14%. Besides, in test [1] (setting [8]), the inhibition at 100 µM was 60%.
In test [1], `COc1ccc(N=Nc2c(S(=O)(=O)O)cc3cc(NC(=O)c4ccccc4)ccc3c2O)cc1` [Example 16, 7-Benzoylamino-4-hydroxy-3-(4-methoxy-phenylazo)-napthalene-2-sulfonic Acid] had an IC50 of 79 µM. For the same compound, the inhibition at 10 µM in test [1] (setting [7]) was 11%. The inhibition at 100 µM in test [1] (setting [8]) amounted to 76%.
As for `COc1ccc(N=Nc2c(S(=O)(=O)O)cc3cc(NC(=O)c4c(OC)cccc4OC)ccc3c2O)cc1` [Example 18, 7-(2,6-Dimethoxy-benzoylamino)-4-hydroxy-3-(4-methoxy-phenylazo)-napthalene-2-sulfonic Acid], the inhibition at 10 µM in test [1] (setting [7]) turned out to be 10%. For the same compound, the inhibition at 100 µM in test [1] (setting [8]) was 8%.
For the compound `COc1ccc(N=Nc2c(S(=O)(=O)O)cc3cc(NC(=O)c4ccc(OC)c(OC)c4)ccc3c2O)cc1` [Example 19, 7-(3,4-Dimethoxy-benzoylamino)-4-hydroxy-3-(4-methoxy-phenylazo)-napthalene-2-sulfonic Acid], the IC50 in test [1] was found to be 14 µM; in test [3] it was 16 µM. The inhibition at 10 µM in test [1] (setting [7]) turned out to be 19%. Further, in test [1] (setting [8]), the inhibition at 100 µM was 100%.
As to `Cc1ccc(C(=O)Nc2ccc(S(=O)(=O)O)c3cc(S(=O)(=O)O)cc(S(=O)(=O)O)c23)cc1NC(=O)c1cccc(NC(=O)Nc2cccc(C(=O)Nc3cc(C(=O)Nc4ccc(S(=O)(=O)O)c5cc(S(=O)(=O)O)cc(S(=O)(=O)O)c45)ccc3C)c2)c1` [suramin], the testosterone production result in test [4] and in test [6] was “decrease in testosterone production” throughout. For the same compound, the “inhibition of FSH binding to its receptor” value in test [5] is on record as “inhibit FSH binding to its receptor”.
